Reference: patent US9609810B2, “Methods for modulating photosynthetic activity” (priority 2012, dated 2017)

Legend:
Format in all cases: in vivo
[1] = tested on: dwarf sunflower (Helianthus annuus L.) plants; assay: Stomata conductance and transpiration in greenhouse-grown plants; conditions: foliar application of aqueous 10 ppm NaHS, pH 7.4, once per evening for one week; compared to control plants
From the text: In the following example, a treatment group of dwarf sunflower (Helianthus annuus L.) plants is sprayed once each evening with an aqueous “treatment solution” of 10 ppm sodium hydrosulfide (NaHS) in distilled water, buffered with phosphate, to a pH of 7.4. The control group of plants is sprayed once each evening with an equivalent amount of “control solution” consisting of distilled water buffered with phosphate to a pH of 7.4. The treatment and control groups each include seven plants. The dwarf sunflower plants are grown from seed in 20-cm diameter plastic pots. Each pot contains one plant growing in a peat, sand mixture. […]
Stomata conductance is measured with a steady state porometer (LiCor model LI-1600, LiCor Inc., Lincoln, Nebr.). Measurements are made on the abaxial leaf surfaces where the majority of stomata are located and are recorded after the treated group and the control group are sprayed once per evening for one week.
The transpiration rate is determined by calculating the vapor pressure at the evaporating surface (leaf) and the air vapor pressure. The saturated vapor pressure of the leaf is calculated by measuring leaf temperature. Leaf temperature is measured using an external thermocouple as well as the LICor porometer. […] Relative humidity is determined using a sling psychrometer. […] Averages for 7 plants of each group are calculated and plotted.

[2] = tested on: potted pepper (Capsicum sp.) plants; assay: Transpiration reduction in pepper plants grown in a growth chamber; conditions: compared to control plants
Procedure: In the following example, a treatment group of potted pepper (Capsicum sp.) plants is sprayed once each evening with an aqueous “treatment solution” of 10 ppm sodium hydrosulfide (NaHS) in distilled water, buffered with phosphate, to a pH of 7.4. The control group of plants is sprayed once each evening with an equivalent amount of “control solution” consisting of distilled water buffered with phosphate to a pH of 7.4. Potted pepper plants are grown in a temperature controlled growth-chamber under metal halide lamps. Average temperature in the growth chamber is about 20° C., and relative humidity is about 60%. Pots contain a greenhouse mix peat soil enriched with slow release fertilizer. Environmental conditions (light, temperature, and relative humidity) inside the growth chamber are monitored every 30 minutes during the experiment using standard environmental sensors such as a pyranometer, thermocouple psychrometer, relative humidity sensor and a datalogger. […]
The treatment solution of aqueous sodium hydrosulfide (NaHS) is sprayed once each night onto the top surface and bottom surface of leaves as described in Example 1 using a simple hand sprayer. The control group receives the same quantity of water alone which is sprayed each night onto the leaves in the same fashion as the treated group. […]

[3] = tested on: corn (Zea Maize); assay: Water used to irrigate corn grown under field conditions; conditions: end of growing season; compared to non-treated control corn
From the text: In the following example, a treatment group of corn (Zea Maize) is sprayed once each evening with an aqueous “treatment solution” of 10 ppm sodium hydrosulfide (NaHS) in distilled water, buffered with phosphate, to a pH of 7.4. The control group of plants is sprayed once each evening with an equivalent amount of “control solution” consisting of distilled water buffered with phosphate to a pH of 7.4. An experimental plot may be setup with 8 repetitions to obtain statistically independent results. The treatment (aqueous NaHS) and control (water alone) plots may be set up following a randomized scheme. […]
Water Use Measurements. […] This allows the measurement of water used in every single plot such that evaluation of water use differences between the water-alone control crops and NaHS treated crops can be monitored. The system is installed in such a way that every plant may receive a given amount of water determined by using constant rate water applicators. […] Soil water content (SWC) is measured continuously, using a Time Domain Reflectometer sensor installed in each of the twenty-four rows. […] The sensors are monitored by a datalogger (model 23X, Campbell Scientific Inc., Logan, Utah). The probes may be 30 cm long, and can be buried vertically, such that average volumetric water content of the top 30 cm of the soil is measured. […] The soil water content may be measured every 60 seconds. […]

S [NaHS, sodium hydrosulfide] was tested, and the stomata conductance [1] was “decrease in stomata conductance”, the transpiration ([2]; optimally watered plants sprayed each night with 10 ppm NaHS) was “reduction in transpiration” and the cumulative water use ([2]; water stress conditions, sprayed each night with 10 ppm NaHS) was “cumulative water use in control plants is consistently higher”. The “biomass production (total dry matter)” value [3] was “higher biomass production”.
